Laboratory results as given in patent US20210395226A1, “SUBSTITUTED ARYL COMPOUND AND PREPARATION METHOD THEREFOR AND USE THEREOF” (SICHUAN KELUN-BIOTECH BIOPHARMACEUTICAL CO., LTD., priority 2018, published 2021).

Key:
ADORA2a/CHOK1 cells = biological target: T1, ADORA2a/CHOK1 cells (Homo sapiens, UniProt P29274); assay: Inhibitory activity for ADORA2a/CHOK1 cells (cAMP detection, adenosine as agonist); format: cell-based; conditions: for inhibition at 0.1 µM: CHO-K1, 100 nM compound, read-out: Inhibition rate at 100 nM; for inhibition at 1 µM: CHO-K1, 1000 nM compound, read-out: Inhibition rate at 1000 nM
T1 construct: host or cells: CHO-K1
Experimental: Test Example 2: Study on Inhibitory Activity for ADORA2a/CHOK1 Cells
ADORA2a/CHOK1 cells (Cobai, CBP71017).
FBS was added to Ham's F-12 medium to a concentration of 10% (v/v), Zeocin was added to a final concentration of 200 μg/mL, and Hygromycin B was added to a final concentration of 100 μg/mL, and the resulting mixture was stored at 4° C. for later use.
A certain amount of adenosine was precisely weighed and placed into a 1.5 mL EP tube, then a certain volume of cell culture medium was added, the resulting mixture was incubated at 37° C. for dissolution, thereby a 10 mM stock solution was prepared. The stock solution was diluted with cell culture medium at 1:1000 to get 10 μM adenosine solution.
The compound to be tested was dissolved in DMSO to form a 10 mM stock solution, and the stock solution was stored in a refrigerator at 4° C. for later use. The stock solution was diluted with the 10 μM of adenosine solution to 2000 nM or 200 nM for later test.
(1) CHO-K1 cells stably expressing ADORA2A receptor were cultured in a 37° C., 5% CO2 cell incubator. When the cell confluence reached about 80%, the cells were digested by trypsin, dispersed and counted; (2) the cell concentration was adjusted to 6×10^5 cells/mL according to the counting results; (3) the cells was inoculated into a white 384-well cell culture plate at 5 μL per well (about 3000 cells/well).
All groups were provided with multiple wells, the adenosine-free cell culture medium was added to the wells of the Blank group (5 μL/well); 10 μM adenosine solution was added to the wells of the Agonist group (5 μL/well); the diluted compound was added to the wells of the test compound group (5 μL/well). After the addition of the compound was completed, the 384-well plate was centrifuged at 2500 rpm for 30 seconds to fully mix the compound and the medium, then placed in a 25° C. incubator and incubated for 30 min.
A certain volume of cAMP-d2 was taken, and diluted by adding Lysis & Detection Buffer at the ratio of 1:5 to prepare Solution A.
A certain volume of cAMP-Cryptate was taken, and diluted by adding Lysis & Detection Buffer at the ratio of 1:5 to prepare Solution B.
(2) After 30 min of incubation in step 2 was completed, addition of detection solution was carried out. The 384-well plate was taken out, 5 μL of Solution A was added to each well, and then 5 μL of Solution B was added to each well, then the 384-well plate was covered with sealing membrane, centrifuged at 2500 rpm for 30 s (to fully mix the detection solution and medium), and incubated in a thermostat at 25° C. for 1 h.
After the incubation, the 384-well plate was taken out, and detected by PHERA Star FS to read data, detection wavelength: 620 nm/665 nm.
inhibition rate %=(1−(RCompound−RBlank)/(RAgonist−RBlank))*100%
wherein, RCompound represented the R Value of the test compound group, RAgonist represented the R value of the Agonist group, and RBlank represented the R value of the Blank group.

[1] = biological target: T2, Adenosine A1 receptor (human) membrane (Homo sapiens, UniProt P30542); assay: Determination of competitive inhibition constant (Ki) for adenosine A1 receptor, [3H]-DPCPX radioligand; format: binding; conditions: 1.0 nM [3H]-DPCPX
T2 construct: purchased PerkinElmer ES-010-M400UA
T2 sequence (P30542 1-326): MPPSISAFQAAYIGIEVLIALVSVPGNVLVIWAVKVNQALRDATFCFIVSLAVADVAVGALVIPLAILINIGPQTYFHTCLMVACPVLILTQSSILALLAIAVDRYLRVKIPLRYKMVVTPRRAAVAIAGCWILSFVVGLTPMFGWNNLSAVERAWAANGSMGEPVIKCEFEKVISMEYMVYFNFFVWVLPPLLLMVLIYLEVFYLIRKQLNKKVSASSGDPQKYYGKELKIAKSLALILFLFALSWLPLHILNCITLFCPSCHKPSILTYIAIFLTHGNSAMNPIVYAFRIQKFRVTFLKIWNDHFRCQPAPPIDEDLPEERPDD
Experimental: (§1) Test Example 1: Determination of Competitive Inhibition Constant (Ki) for Adenosine A1 and A2a Receptors
[^3H]-DPCPX (PerkinElmer, NET974250UC),
Adenosine A1 receptor (human) membrane (PerkinElmer, ES-010-M400UA),
assay buffer for A1 (25 mM HEPES, 5 mM MgCl2, 1 mM CaCl2, 100 mM NaCl, pH7.4), used to dilute adenosine A1 receptor (human) membrane and [^3H]-DPCPX;
wash buffer for A1 (25 mM HEPES, 5 mM MgCl2, 1 mM CaCl2, 100 mM NaCl, pH7.4);
(§2) Adenosine A1 receptor membrane was diluted to 0.025 μg/μl with assay buffer for A1, and Adenosine A2a receptor membrane was diluted to 0.05 μg/μl with assay buffer for A2a, so as to obtain Adenosine A1 receptor membrane dilution and Adenosine A2a receptor membrane dilution.
(§3) The compound to be tested and CGS-15943 were diluted with DMSO, and 1 W of the compound to be tested, high value control (0.5% DMSO), low value control (1000 nM CGS-15943) were added to a 96-well plate, and 100 W of Adenosine A1 receptor membrane dilution (containing 2.5 μg of membrane) was added to each well of the 96-well plate to obtain A1 detection plate; following the same steps, 100 W of Adenosine A2a receptor membrane dilution (containing 5.0 μg membrane) was added to each well of the 96-well plate to obtain A2a detection plate.
(§4) To the A1 detection plate, 100 μl of radioisotope-labeled ligand [^3H]-DPCPX (diluted with assay buffer for A1, working concentration of which was 1.0 nM) was added; and to the A2a detection plate, 100 μl of radioisotope-labeled ligand [^3H]-CGS-21680 (diluted with assay buffer for A2a, working concentration of which was 6.0 nM) was added. The A1 and A2a detection plates were sealed with tape, and incubated at room temperature for 1 h and 2 h, respectively.
(§5) Unifilter-96 GF/C filter plates were prepared, 50 μl of 0.3% PEI was added to each well of the Unifilter-96 GF/C filter plates, and the resulting filter plates were incubated at room temperature for not less than 0.5 h.
(§6) After the incubation was completed, the reaction solution was transferred from the A1 detection plate and the A2a detection plate to two Unifilter-96 GF/C filter plates, and washed with pre-cooled wash buffer for A1 and wash buffer for A2a, and then the filter plates were dried, sealed at bottom, then 50 W of Microscint 20 fluid scintillation cocktail was added, and then the filter plates were sealed at top, and counted by MicroBeta2 Reader.
(§7) Inhibition rate %=100−(signal value of test well−signal average value of low value control)/(signal average value of high value control−signal average value of low value control)*100.
(§8) EXCEL XLfit was used to fit IC50.
(§9) The calculation formula for competitive inhibition constant (Ki) was: Ki=IC50/(1+concentration of isotope-labeled ligand/Kd), wherein Kd was the dissociation constant of the isotope-labeled ligand.

[2] = biological target: T3, Adenosine A2a receptor (human) membrane (Homo sapiens, UniProt P29274); assay: Determination of competitive inhibition constant (Ki) for adenosine A2a receptor, [3H]-CGS-21680 radioligand; format: binding; conditions: for Ki: human A2a receptor membrane, 6.0 nM [3H]-CGS-21680, read-out: Ki(A2a); for Ki(A1)/Ki(A2a): selectivity ratio A1 over A2a
T3 construct: purchased PerkinElmer RBHA2AM400UA
Experimental: as §1
Adenosine A2a receptor (human) membrane (PerkinElmer, RBHA2AM400UA),
assay buffer for A2a (50 mM Tris-HCl, 10 mM MgCl2, 1 mM EDTA, pH7.4), used to dilute adenosine A2a receptor (human) membrane (human origin) and [^3H]-CGS-21680; and
wash buffer for A2a (50 mM Tris-HCl, 154 mM NaCl, pH7.4).
as §2, §3, §4, §5, §6, §7, §8, §9

T3 sequence (P29274 whole entry): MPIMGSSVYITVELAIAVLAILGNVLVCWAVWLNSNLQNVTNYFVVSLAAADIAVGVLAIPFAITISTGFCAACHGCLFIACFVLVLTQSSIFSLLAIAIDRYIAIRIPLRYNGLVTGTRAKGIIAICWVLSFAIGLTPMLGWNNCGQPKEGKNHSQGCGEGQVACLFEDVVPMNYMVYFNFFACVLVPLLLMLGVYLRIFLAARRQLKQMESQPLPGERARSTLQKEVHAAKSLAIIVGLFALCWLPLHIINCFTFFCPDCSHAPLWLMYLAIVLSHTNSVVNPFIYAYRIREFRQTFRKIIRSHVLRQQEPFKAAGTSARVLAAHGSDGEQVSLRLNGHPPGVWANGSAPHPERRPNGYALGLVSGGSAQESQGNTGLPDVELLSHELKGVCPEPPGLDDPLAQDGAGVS
T1 sequence (P29274 whole entry): as above

Compound	inhibition at 0.1 µM (ADORA2a/CHOK1 cells) [%]	inhibition at 1 µM (ADORA2a/CHOK1 cells) [%]	Ki [1] [nM]	Ki [2] [nM]	Ki(A1)/Ki(A2a) [2]
Cc1ncnc2ccc(-c3c(-c4ccc(F)cc4)nc(NC(=O)N4CCOCC4)nc3C3CC3)cc12 [Compound 44, N-(4-cyclopropyl-6-(4-fluorophenyl)-5-(4-methylquinazolin-6-yl)pyrimidin-2-yl)morpholine-4-carboxamide]	64.8	104	931	14.5	64.2
Cc1ncnc2ccc(-c3c(C#N)cc(NC(=O)N4CCOCC4)nc3-c3ccc(F)cc3)cc12 [Compound 43, N-(4-cyano-6-(4-fluorophenyl)-5-(4-methylquinazolin-6-yl)pyridin-2-yl) morpholine-4-carboxamide]	59.1	100	134	1.36	98.3
